Laboratory results taken from patent publication US6924311B2, “Methods for affecting various diseases utilizing LXR compounds” (X-Ceptor Therapeutics, Inc., priority 2001, dated 2005).

Columns and labels:
[1] = Plasma HDL cholesterol levels in wildtype and LXR knockout mice; assay type: in vivo; settings: 10 mg/kg daily oral, day 7
Procedure: To determine the individual contribution of LXRα and LXRβ to increases in HDL cholesterol levels, Compound 1 (10 mg/kg) was administered for seven days by daily oral gavage in a sesame oil/ethanol vehicle via a 1 cc syringe fitted with a 20G disposable feeding needle. Compound was solvated in ethanol (5% final volume) and brought up to final volume with sesame oil (Sigma, St. Louis, Mo.). On day 7 mice were anesthetized with isofluorane and blood samples were obtained by retro-orbital plexus puncture. Blood samples were collected in heparinized tubes, centrifuged to obtain plasma and stored at -20° C. HDL levels were determined by precipitating non-HDL cholesterol from plasma samples using a precipitating reagent (Wako Diagnostic 278-67409, Richmond, Va.). The remaining HDL cholesterol was than quantitated using a colorimetric enzymatic assay adapted to a 96 well plate format (Infinity Total Cholesterol Reagent, Sigma, St. Louis, Mo.). […] (23%) strains and unchanged when LXRβ is eliminated. […] Thus either LXRα or LXRβ alone is competent to elevate HDL cholesterol in response to agonist treatment (FIG. 5). The lack of selectivity in HDL regulation contrasts the selective decrease in triglyceride levels observed only when LXRα is eliminated (LXRα-/-, LXRαβ-/-; FIGS. 1 and 2).

LXRβ = target: T1, LXRβ (Homo sapiens, UniProt P55055); settings: stated as considered, no test described; cited from earlier work
T1 sequence (P55055 1-460): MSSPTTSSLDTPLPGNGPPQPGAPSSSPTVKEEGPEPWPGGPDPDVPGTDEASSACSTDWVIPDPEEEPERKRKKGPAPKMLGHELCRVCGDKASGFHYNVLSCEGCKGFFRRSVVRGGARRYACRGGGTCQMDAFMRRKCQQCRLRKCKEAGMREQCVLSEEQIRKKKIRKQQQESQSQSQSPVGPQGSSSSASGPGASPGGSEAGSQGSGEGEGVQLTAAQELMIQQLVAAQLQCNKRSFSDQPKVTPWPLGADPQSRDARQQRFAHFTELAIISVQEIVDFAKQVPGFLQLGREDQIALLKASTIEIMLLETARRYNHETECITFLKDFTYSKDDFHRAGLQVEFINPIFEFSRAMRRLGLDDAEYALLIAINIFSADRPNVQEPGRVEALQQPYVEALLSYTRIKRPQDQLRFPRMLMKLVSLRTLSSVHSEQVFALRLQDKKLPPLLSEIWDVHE

[2] = Plasma triglyceride levels in wildtype and LXR knockout mice after oral dosing; assay type: in vivo; settings: 10 mg/kg daily oral gavage, 7 days
Description: To decipher the physiological roles of LXRα and LXRβ mice, seven different lines of mice encompassing four unique LXR genotypes (LXRα+/+, LXRβ+/+=wildtype; LXRα−/−, LXRβ+/+=LXRα−/−; LXRα+/+, LXRβ−/−=LXRβ−/−; LXRα−/−, LXRβ−/−=LXRαβ−/−) were studied. Genetic knockouts of LXRα( LXRα−/−) were generated in two independent mouse strain backgrounds (C57BL/6 and A129). Genetic knockouts of LXRβ (LXRβ−/−) and the double knockout of LXRα and LXRβ (LXRαβ−/−) were generated in a mixed genetic background (C57BL/6×A129). The three appropriate wildtype (LXRα+/+, LXRβ+/+) mouse lines were used as controls. Mice from each line were treated for seven days with 10 mg compound/kg body weight of the LXR agonist Compound 1: N-(2,2,2-trifluoroethyl)-N-[4-(2,2,2- trifluoro-1-hydroxy-1-trifluoromethylethyl)-phenyl]-benzene sulfonamide. […] Compound 1 was administered by daily oral gavage in a sesame oil/ethanol vehicle via a 1-cc syringe fitted with a 20G disposable feeding needle. Compound was solvated in ethanol (5% final volume) and brought up to final volume with sesame oil (Sigma, St. Louis, Mo.).
To determine the ability of Compound 1 to elevate serum triglycerides non-fasting mice were anesthetized with isofluorane and blood samples were obtained by retro-orbital plexus puncture. Blood samples were collected before the first dose and three hours after dosing on day 1, day 3 and day 7 into heparinized tubes. Samples were centrifuged to obtain plasma and stored at −20° C. Plasma triglyceride levels were determined using a colorimetric enzymatic assay adapted to a 96 well plate format (Infinity Triglyceride Reagent, Sigma, St. Louis, Mo.). Sigma glycerol standards (Sigma, St. Louis, Mo.) were use to generate standard curves. The absorbance of the samples and standards were read using a Multiskan plate reader.

LXRα = target: T2, LXRα (Homo sapiens, UniProt Q13133); settings: stated as considered, no test described; cited from earlier work
T2 sequence (Q13133 1-447): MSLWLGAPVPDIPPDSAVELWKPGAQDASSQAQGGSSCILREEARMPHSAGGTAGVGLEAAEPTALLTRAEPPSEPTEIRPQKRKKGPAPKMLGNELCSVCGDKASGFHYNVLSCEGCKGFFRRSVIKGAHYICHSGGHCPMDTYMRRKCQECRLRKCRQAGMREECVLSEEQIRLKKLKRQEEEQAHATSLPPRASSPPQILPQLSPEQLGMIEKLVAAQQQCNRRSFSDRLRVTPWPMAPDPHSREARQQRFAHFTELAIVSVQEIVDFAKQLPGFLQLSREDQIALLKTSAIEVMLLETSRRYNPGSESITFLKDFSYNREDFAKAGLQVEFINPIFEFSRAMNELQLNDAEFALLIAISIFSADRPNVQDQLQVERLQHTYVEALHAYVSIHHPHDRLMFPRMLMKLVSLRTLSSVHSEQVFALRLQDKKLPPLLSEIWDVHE

O=S(=O)(c1ccccc1)N(CC(F)(F)F)c1ccc(C(O)(C(F)(F)F)C(F)(F)F)cc1 [Compound 1, N-(2,2,2-trifluoroethyl)-N-[4-(2,2,2-trifluoro-1-hydroxy-1-trifluoromethylethyl)-phenyl]-benzene sulfonamide]
agonist-dependent increase in HDL ([1]; LXRαβ−/− mice): completely lost
reduction of agonist-dependent increase in HDL ([1]; LXRα−/− A129 mice versus wildtype): 23%
reduction of agonist-dependent increase in HDL ([1]; LXRα−/− C57BL/6 mice versus wildtype): 8%
agonist-dependent increase in HDL ([1]; LXRβ−/− mice): unchanged
effect on HDL levels ([1]; wildtype mice): significant increase in HDL levels
binding and activation of LXRβ (LXRβ): binds and activates both LXRα and LXRβ with similar potency and efficacy
effect on serum triglyceride levels ([2]; LXRβ−/− mice): no effect on the ability of LXR agonists to elevate triglycerides
effect on serum triglyceride levels ([2]; mice lacking LXRα (LXRα−/−, LXRαβ−/−)): elevates serum triglyceride levels only in mice that have LXRα
effect on serum triglyceride levels ([2]; wildtype mice): elevates serum triglyceride levels
binding and activation of LXRα (LXRα): binds and activates both LXRα and LXRβ with similar potency and efficacy
